Patent US20060069132A1, “Azolecarboxamide herbicides” (priority 2004, published 2006)

Columns and labels:
redroot pigweed = assay: Test A pre-/postemergence herbicide test; type: in vivo, Amaranthus retroflexus
Method in brief: (§1)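 Plants are held in greenhouse about ten days after treatment, then compared with untreated controls and scored 0 (no effect) to 100 (complete control). Preemergence dosing is a directed soil spray on sown sandy loam; postemergence dosing is spray to runoff at 2–10 cm height.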

large crabgrass [1] = assay: Test A pre-/postemergence herbicide test; type: in vivo, Digitaria sanguinalis
Method in brief: as §1

corn = assay: Test B pre-/postemergence herbicide test; type: in vivo, Zea mays; details: for Plant response rating, Corn: preemergence; for Corn plant response rating: postemergence, visual rating, scale 0 (no effect) to 100 (complete control)
Method in brief: (§2)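 Herbicidal effect was judged by eye on a 0–100 scale after plants stood 13 to 15 days in the greenhouse following pre- or postemergence treatment with surfactant-containing formulations.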

large crabgrass [2] = assay: Test B pre-/postemergence herbicide test; type: in vivo, Digitaria sanguinalis; details: for Plant response rating, Crabgrass, Large: preemergence; for Crabgrass, Large plant response rating: postemergence, visual rating, scale 0 (no effect) to 100 (complete control)
Method in brief: as §2

Surinam grass = assay: Test B pre-/postemergence herbicide test; type: in vivo, Urochloa decumbens; details: for Plant response rating, Surinam Grass: preemergence; for Surinam Grass plant response rating: postemergence, visual rating, scale 0 (no effect) to 100 (complete control)
Method in brief: as §2

barnyardgrass [3] = assay: Test B flooded paddy test; type: in vivo, Echinochloa crus-galli; details: 1000 g ai/ha, visual rating, scale 0 to 100 (0 no effect, 100 complete control), 13 to 15 days
Method in brief: (§3)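 Visual control ratings, 0–100 versus untreated controls, taken after 13 to 15 days in the greenhouse. Blackgrass received a postemergence spray at the 1- to 4-leaf stage (2–18 cm); ducksalad, umbrella sedge and barnyardgrass were flooded-paddy treated at 2 leaves.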

morningglory [4] = assay: Test A pre-/postemergence herbicide test; type: in vivo, Ipomoea spp.
Method in brief: as §1

ducksalad = assay: Test B flooded paddy test; type: in vivo, Heteranthera limosa; details: 1000 g ai/ha, visual rating, scale 0 to 100 (0 no effect, 100 complete control), 13 to 15 days
Method in brief: as §3

pigweed = assay: Test B pre-/postemergence herbicide test; type: in vivo, Amaranthus retroflexus; details: for Plant response rating, Pigweed: preemergence; for Pigweed plant response rating: postemergence, visual rating, scale 0 (no effect) to 100 (complete control)
Method in brief: as §2

rice [5] = assay: Test B pre-/postemergence herbicide test; type: in vivo, Oryza sativa; details: preemergence, 125 g ai/ha; 0 to 100 scale, 0 is no effect, 100 is complete control
Method in brief: as §2

giant foxtail [6] = assay: Test A pre-/postemergence herbicide test; type: in vivo, Setaria faberi
Method in brief: as §1

wheat = assay: Test B postemergence herbicide test; type: in vivo, Triticum aestivum; design: key to Wheat plant response rating: 0 = no effect, 100 = complete control; details: postemergence, visual rating, scale 0 (no effect) to 100 (complete control)
Method in brief: (§4)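 After treating 2-leaf paddy plants or 2–18 cm postemergence plants (1 to 4 leaves) with formulated chemical, researchers kept them in a greenhouse for 13–15 days. Effects were judged visually versus controls: 0 indicates none, 100 total control.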

cocklebur = assay: Test B pre-/postemergence herbicide test; type: in vivo, Xanthium strumarium; details: for Plant response rating, Cocklebur: preemergence; for Cocklebur plant response rating: postemergence, visual rating, scale 0 (no effect) to 100 (complete control)
Method in brief: (§5)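 Response was scored visually 13 to 15 days after treatment against untreated greenhouse controls, 0 meaning no effect and 100 complete control. Formulations (solvent mixture plus surfactant) went onto soil after planting, onto foliage of 1- to 4-leaf plants, and onto 2-leaf plants in a flooded paddy set including rice and barnyardgrass.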

velvetleaf [7] = assay: Test B pre-/postemergence herbicide test; type: in vivo, Abutilon theophrasti; details: for Plant response rating, Velvetleaf: preemergence; for Velvetleaf plant response rating: postemergence, visual rating, scale 0 (no effect) to 100 (complete control)
Method in brief: as §2

lambsquarters = assay: Test B pre-/postemergence herbicide test; type: in vivo, Chenopodium album; details: for Plant response rating, Lambsquarters: preemergence; for Lambsquarters plant response rating: postemergence, visual rating, scale 0 (no effect) to 100 (complete control)
Method in brief: as §2

giant foxtail [8] = assay: Test B pre-/postemergence herbicide test; type: in vivo, Setaria faberi; details: for Plant response rating, Foxtail, Giant: preemergence; for Foxtail, Giant plant response rating: postemergence, visual rating, scale 0 (no effect) to 100 (complete control)
Method in brief: as §2

[9] = tested on: small flower umbrella sedge; assay: Test B flooded paddy test; type: in vivo, Cyperus difformis; details: 1000 g ai/ha, visual rating, scale 0 to 100 (0 no effect, 100 complete control), 13 to 15 days
Method in brief: as §3

barnyardgrass [10] = assay: Test A pre-/postemergence herbicide test; type: in vivo, Echinochloa crus-galli
Method in brief: as §1

barnyardgrass [11] = assay: Test B pre-/postemergence herbicide test; type: in vivo, Echinochloa crus-galli; details: for Plant response rating, Barnyardgrass: preemergence; for Barnyardgrass plant response rating: postemergence, visual rating, scale 0 (no effect) to 100 (complete control)
Method in brief: as §5

blackgrass = assay: Test B postemergence herbicide test; type: in vivo, Alopecurus myosuroides; details: postemergence, visual rating, scale 0 (no effect) to 100 (complete control)
Method in brief: as §3

wild oat = assay: Test B postemergence herbicide test; type: in vivo, Avena fatua; details: postemergence, visual rating, scale 0 (no effect) to 100 (complete control)
Method in brief: as §4

morningglory [12] = assay: Test B pre-/postemergence herbicide test; type: in vivo, Ipomoea coccinea; details: for Plant response rating, Morningglory: preemergence; for Morningglory plant response rating: postemergence, visual rating, scale 0 (no effect) to 100 (complete control)
Method in brief: as §5

rice [13] = assay: Test B flooded paddy test; type: in vivo, Oryza sativa; details: 1000 g ai/ha, visual rating, scale 0 to 100 (0 no effect, 100 complete control), 13 to 15 days
Method in brief: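 Treated at 2-leaf (paddy) or 1–4-leaf, 2–18 cm (postemergence); greenhouse 13–15 d; visual score vs control, 0 none to 100 complete control; dash = not tested.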

velvetleaf [14] = assay: Test A pre-/postemergence herbicide test; type: in vivo, Abutilon theophrasti
Method in brief: as §1

[15] = Postemergence, 500 g ai/ha, 0 to 100 scale, 0 no effect, 100 complete control
[16] = Postemergence, 2000 g ai/ha, 0 to 100 scale, 0 no effect, 100 complete control
[17] = Preemergence, 2000 g ai/ha, visual rating, 0 to 100 scale (0 no effect, 100 complete control)
[18] = preemergence, 500 g ai/ha, visual injury, 0 to 100 scale (0 no effect, 100 complete control)
[19] = Preemergence, 500 g ai/ha, visual rating, 0 to 100 scale (0 no effect, 100 complete control)
[20] = 500 g ai/ha, visual rating 0-100, 0 no effect, 100 complete control
[21] = 125 g ai/ha, 0 to 100 scale, 0 is no effect, 100 is complete control

## Cn1nc(C(C)(C)C)cc1C(=O)Nc1cccc(C#N)c1 [Compound 121]
Redroot pigweed; [15]
  Pigweed plant response rating: 90
Redroot pigweed; [16]
  Plant response rating, Pigweed: 100
Redroot pigweed; [17]
  Pigweed plant response rating: 100
Redroot pigweed; [18]
  Pigweed plant response rating: 95
Large crabgrass [1]; [15]
  Crabgrass, Large plant response rating: 10
Large crabgrass [1]; [16]
  Plant response rating, Crabgrass, Large: 10
Large crabgrass [1]; [19]
  Crabgrass, Large plant response rating: 10
Large crabgrass [1]; [17]
  Crabgrass, Large plant response rating: 75
corn; [20]
  Plant response rating, Corn: 0
corn; 125 g ai/ha
  Corn plant response rating: 0
corn; 500 g ai/ha
  Corn plant response rating: 10
corn; [21]
  Plant response rating, Corn: 0
Large crabgrass [2]; [20]
  Plant response rating, Crabgrass, Large: 50
Large crabgrass [2]; 125 g ai/ha
  Crabgrass, Large plant response rating: 10
Large crabgrass [2]; 500 g ai/ha
  Crabgrass, Large plant response rating: 10
Large crabgrass [2]; [21]
  Plant response rating, Crabgrass, Large: 0
Surinam grass; [20]
  Plant response rating, Surinam Grass: 20
Surinam grass; 125 g ai/ha
  Surinam Grass plant response rating: 10
Surinam grass; 500 g ai/ha
  Surinam Grass plant response rating: 30
Surinam grass; [21]
  Plant response rating, Surinam Grass: 0
Barnyardgrass [3]
  Barnyardgrass plant response rating: 0
Morningglory [4]; [15]
  Morningglory plant response rating: 20
Morningglory [4]; [16]
  Plant response rating, Morningglory: 20
Morningglory [4]; [19]
  Morningglory plant response rating: 5
Morningglory [4]; [17]
  Morningglory plant response rating: 20
ducksalad
  Ducksalad plant response rating: 0
pigweed; [20]
  Plant response rating, Pigweed: 100
pigweed; 125 g ai/ha
  Pigweed plant response rating: 30
pigweed; 500 g ai/ha
  Pigweed plant response rating: 50
pigweed; [21]
  Plant response rating, Pigweed: 80
Rice [5]
  Plant response rating, Rice: 0
Giant foxtail [6]; [15]
  Foxtail, Giant plant response rating: 15
Giant foxtail [6]; [16]
  Plant response rating, Foxtail, Giant: 25
Giant foxtail [6]; [19]
  Foxtail, Giant plant response rating: 25
Giant foxtail [6]; [17]
  Foxtail, Giant plant response rating: 75
wheat; 125 g ai/ha
  Wheat plant response rating: 0
wheat; 500 g ai/ha
  Wheat plant response rating: 0
cocklebur; [20]
  Plant response rating, Cocklebur: 0
cocklebur; 125 g ai/ha
  Cocklebur plant response rating: 10
cocklebur; 500 g ai/ha
  Cocklebur plant response rating: 20
cocklebur; [21]
  Plant response rating, Cocklebur: 0
Velvetleaf [7]; [20]
  Plant response rating, Velvetleaf: 20
Velvetleaf [7]; 125 g ai/ha
  Velvetleaf plant response rating: 10
Velvetleaf [7]; 500 g ai/ha
  Velvetleaf plant response rating: 20
Velvetleaf [7]; [21]
  Plant response rating, Velvetleaf: 0
lambsquarters; [20]
  Plant response rating, Lambsquarters: 100
lambsquarters; 125 g ai/ha
  Lambsquarters plant response rating: 80
lambsquarters; 500 g ai/ha
  Lambsquarters plant response rating: 80
lambsquarters; [21]
  Plant response rating, Lambsquarters: 70
Giant foxtail [8]; [20]
  Plant response rating, Foxtail, Giant: 70
Giant foxtail [8]; 125 g ai/ha
  Foxtail, Giant plant response rating: 0
Giant foxtail [8]; 500 g ai/ha
  Foxtail, Giant plant response rating: 10
Giant foxtail [8]; [21]
  Plant response rating, Foxtail, Giant: 0
[9]
  Sedge, Umbrella plant response rating: 0
Barnyardgrass [10]; [15]
  Barnyardgrass plant response rating: 10
Barnyardgrass [10]; [16]
  Plant response rating, Barnyardgrass: 35
Barnyardgrass [10]; [19]
  Barnyardgrass plant response rating: 15
Barnyardgrass [10]; [17]
  Barnyardgrass plant response rating: 40
Barnyardgrass [11]; [20]
  Plant response rating, Barnyardgrass: 80
Barnyardgrass [11]; 125 g ai/ha
  Barnyardgrass plant response rating: 0
Barnyardgrass [11]; 500 g ai/ha
  Barnyardgrass plant response rating: 0
Barnyardgrass [11]; [21]
  Plant response rating, Barnyardgrass: 0
blackgrass; 125 g ai/ha
  Blackgrass plant response rating: 0
blackgrass; 500 g ai/ha
  Blackgrass plant response rating: 0
Wild oat; 125 g ai/ha
  Oat, Wild plant response rating: 10
Wild oat; 500 g ai/ha
  Oat, Wild plant response rating: 30
Morningglory [12]; [20]
  Plant response rating, Morningglory: 20
Morningglory [12]; 125 g ai/ha
  Morningglory plant response rating: 0
Morningglory [12]; 500 g ai/ha
  Morningglory plant response rating: 0
Morningglory [12]; [21]
  Plant response rating, Morningglory: 0
Rice [13]
  Rice plant response rating: 0
Velvetleaf [14]; [15]
  Velvetleaf plant response rating: 10
Velvetleaf [14]; [16]
  Plant response rating, Velvetleaf: 15
Velvetleaf [14]; [17]
  Velvetleaf plant response rating: 30
Velvetleaf [14]; [18]
  Velvetleaf plant response rating: 10
